Results from patent US20230331737A1, “MTORC1 MODULATORS AND USES THEREOF” (Aeovian Pharmaceuticals, Inc., priority 2020, published 2023).

What was measured:
FKBP12 = FKBP12 (Homo sapiens, UniProt P62942); test: SPR assay to determine binding affinity to FKBP12 (direct binding); settings: immobilized biotinylated avi-FKBP12, single-cycle kinetics
Procedure: SPR Assay to Determine Binding Affinity to FKBP12.
Biotinylated avi-FKBP12 was immobilized on a streptavidin chip (Cytiva Series S SA) using a Biacore 8K or 8k+ (Cytiva). […] Test compounds described in Table 11 were diluted in DMSO to 100× working concentration. Each test compound was 100-fold diluted in 50 mM HEPES pH 7.5, 150 mM NaCl, 2 mM MgCl2, 1 mM DTT, 0.05% Tween-20 and a serial dilution prepared (9 concentrations, 3-fold dilutions, 0.08-500 nM). […] The compound dilutions were then injected at 100 uL/min for 120 seconds contact time in sequence with increasing concentrations. Dissociation was monitored for 3600 seconds. 50 mM HEPES pH 7.5, 150 mM NaCl, 2 mM MgCl2, 1 mM DTT, 0.05% Tween-20, 1% DMSO was used as running buffer. The single-cycle kinetics data were fit to a 1:1 binding model to measure the association rate ka (1/Ms), the dissociation rate kd (1/s) and the affinity Kd (M).

mTORC1 = target: T1, mTORC1 (Homo sapiens, UniProt P42345+P62942); test: mTORC1 inhibition in PC-3 cells, AlphaLISA of p70S6K pT389 levels; assay type: cell-based; settings: mTORC1 as measured by inhibition of p70S6K pT389 levels, read-out: mTROC1 IC50
T1 construct: endogenous in cells; host or cells: PC-3 cells
Procedure: mTORC1 inhibition was determined via analysis of phosphorylation levels of Phospho-p70 S6 kinase (p70S6K pT389) and Phospho-S6 Ribosomal Protein (pRPS6 pS240/pS244) with the corresponding AlphaLISA kits (PerkinElmer Alpha SF Ultra™ Multiplex phospho (Thr389)/total p70 S6K Assay Kit (Eu/Tb) and AlphaLISA SF Ultra™ p-Ribosomal Protein S6 (Ser240/244) Assay Kit).
%−activity=100*((Sample−Low control)/(High control−Low control))

[1] = target: FKBP12 ternary complex with FRB (Homo sapiens, UniProt P42345+P62942); test: SPR assay to characterize ternary complex formation with FKBP12 (FRB injected over compound-saturated FKBP12); assay type: binding; settings: FRB dilutions with 100 nM test compound over immobilized FKBP12
Procedure: Biotinylated avi-FKBP12 was immobilized on a streptavidin chip (Cytiva Series S SA) using a Biacore 8K or 8k+ (Cytiva). To achieve an immobilization level of 100 RU, 0.3 μg/ml biotinylated avi-FKBP12 were injected for 80 sec at a flow rate of 10 μl/min. Serial dilution of FRB was prepared (12 concentrations, 3-fold dilutions, 0.00011-20 μM) and supplemented with 100 nM of a test compound. A-B-A injection mode was used to ensure saturation immobilized FKBP12 with respective test compound. 100 nM solution of the respective test compound was injected before FRB injection for 120 sec and during dissociation for 420 sec. The FRB dilutions were then injected 120 seconds contact time with increasing concentrations. Rapamycin was used as reference sample. 50 mM HEPES pH 7.5, 150 mM NaCl, 2 mM MgCl2, 1 mM DTT, 0.05% Tween-20, 1% DMSO was used as running buffer at a flow rate of 30 μl/min. The multi-cycle kinetics data were fit to a 1:1 binding model to measure the association rate ka (1/Ms), the dissociation rate kd (1/s) and the affinity Kd (M). In case of fast association and dissociation, steady state affinity analysis following the law of mass action was used to determine the affinity Kd (M).

mTORC2 = mTORC2 (Homo sapiens, UniProt P42345+P62942); test: mTORC2 inhibition in PC3 cells, AlphaLISA of pAKT pS473 levels
mTORC2, sequence (P62942 2-108 limits assumed, other chains not shown): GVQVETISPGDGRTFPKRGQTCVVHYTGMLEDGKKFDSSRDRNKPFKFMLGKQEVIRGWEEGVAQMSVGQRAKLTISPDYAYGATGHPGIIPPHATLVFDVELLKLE

FKBP12, sequence (P62942 whole entry, species assumed): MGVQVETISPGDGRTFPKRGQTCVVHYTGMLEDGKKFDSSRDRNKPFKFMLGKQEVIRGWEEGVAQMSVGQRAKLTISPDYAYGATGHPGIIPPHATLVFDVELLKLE

Row | SMILES | Kd (FKBP12) [nM] | IC50 (mTORC1) [nM] | Kd [1] [nM] | IC50 (mTORC2) [nM]
1 | CO[C@@H]1C[C@H](C[C@@H](C)[C@@H]2CC(=O)[C@H](C)/C=C(\C)[C@@H](O)[C@@H](OC)C(=O)[C@H](C)C[C@H](C)/C=C/C=C/C=C(\C)[C@@H](OCC3COC3)C[C@@H]3CC[C@@H](C)[C@@](O)(O3)C(=O)C(=O)N3CCCC[C@H]3C(=O)O2)CC[C@H]1OCCO [Compound 474, (1R,9S,12S,15R,16E,18R,19R,21R,23S,24E,26E,28E,30S,32S,35R)-1,18-dihydroxy-12-[(1R)-2-[(1S,3R,4R)-4-(2-hydroxyethoxy)-3-methoxy-cyclohexyl]-1-methyl-ethyl]-19-methoxy-15,17,21,23,29,35-hexamethyl-30-(oxetan-3-ylmethoxy)-11,36-dioxa-4-azatricyclo[30.3.1.04,9]hexatriaconta-16,24,26,28-tetraene-2,3,10,14,20-pentone] | 0.3 to 1 | < 0.8 | 500 to 1100 | –
2 | CO[C@@H]1C[C@H](C[C@@H](C)[C@@H]2CC(=O)[C@H](C)/C=C(\C)[C@@H](O)[C@@H](OC)C(=O)[C@H](C)C[C@H](C)/C=C/C=C/C=C(\C)[C@H](OC3CC3)C[C@@H]3CC[C@@H](C)[C@@](O)(O3)C(=O)C(=O)N3CCCC[C@H]3C(=O)O2)CC[C@H]1O [Compound 519, (1R,9S,12S,15R,16E,18R,19R,21R,23S,24E,26E,28E,30R,32S,35R)-30-(cyclopropoxy)-1,18-dihydroxy-12-[(1R)-2-[(1S,3R,4R)-4-hydroxy-3-methoxy-cyclohexyl]-1-methyl-ethyl]-19-methoxy-15,17,21,23,29,35-hexamethyl-11,36-dioxa-4-azatricyclo[30.3.1.04,9]hexatriaconta-16,24,26,28-tetraene-2,3,10,14,20-pentone] | < 0.3 | < 0.8 | < 500 | –
3 | CO[C@@H]1C[C@H](C[C@@H](C)[C@@H]2CC(=O)[C@H](C)/C=C(\C)[C@@H](O)[C@@H](OC)C(=O)[C@H](C)C[C@H](C)/C=C/C=C/C=C(\C)[C@@H](OCCc3ccccc3)C[C@@H]3CC[C@@H](C)[C@@](O)(O3)C(=O)C(=O)N3CCCC[C@H]3C(=O)O2)CC[C@H]1O [Compound 520, (1R,9S,12S,15R,16E,18R,19R,21R,23S,24E,26E,28E,30S,32S,35R)-1,18-dihydroxy-12-[(1R)-2-[(1S,3R,4R)-4-hydroxy-3-methoxy-cyclohexyl]-1-methyl-ethyl]-19-methoxy-15,17,21,23,29,35-hexamethyl-30-(2-phenylethoxy)-11,36-dioxa-4-azatricyclo[30.3.1.04,9]hexatriaconta-16,24,26,28-tetraene-2,3,10,14,20-pentone] | > 1 | < 0.8 | < 500 | –
4 | CO[C@@H]1C[C@H](C[C@@H](C)[C@@H]2CC(=O)[C@H](C)/C=C(\C)[C@@H](O)[C@@H](OC)C(=O)[C@H](C)C[C@H](C)/C=C/C=C/C=C(\C)[C@@H](OCC3COC3)C[C@@H]3CC[C@@H](C)[C@@](O)(O3)C(=O)C(=O)N3CCCC[C@H]3C(=O)O2)CC[C@H]1O [Compound 521, (1R,9S,12S,15R,16E,18R,19R,21R,23S,24E,26E,28E,30S,32S,35R)-1,18-dihydroxy-12-[(2R)-1-[(1S,3R,4R)-4-hydroxy-3-methoxycyclohexyl]propan-2-yl]-19-methoxy-15,17,21,23,29,35-hexamethyl-30-[(oxetan-3-yl)methoxy]-11,36-dioxa-4-azatricyclo[30.3.1.04,9]hexatriaconta-16,24,26,28-tetraene-2,3,10,14,20-pentone] | < 0.3 | < 0.8 | 500 to 1100 | –
5 | CO[C@@H]1C[C@H](C[C@@H](C)[C@@H]2CC(=O)[C@H](C)/C=C(\C)[C@@H](O)[C@@H](OC)C(=O)[C@H](C)C[C@H](C)/C=C/C=C/C=C(\C)[C@@H](OC3COC3)C[C@@H]3CC[C@@H](C)[C@@](O)(O3)C(=O)C(=O)N3CCCC[C@H]3C(=O)O2)CC[C@H]1O [Compound 523, (1R,9S,12S,15R,16E,18R,19R,21R,23S,24E,26E,28E,30S,32S,35R)-1,18-dihydroxy-12-[(2R)-1-[(1S,3R,4R)-4-hydroxy-3-methoxycyclohexyl]propan-2-yl]-19-methoxy-15,17,21,23,29,35-hexamethyl-30-(oxetan-3-yloxy)-11,36-dioxa-4-azatricyclo[30.3.1.04,9]hexatriaconta-16,24,26,28-tetraene-2,3,10,14,20-pentone] | < 0.3 | < 0.8 | > 1100 | –
6 | CO[C@@H]1C[C@H](C[C@@H](C)[C@@H]2CC(=O)[C@H](C)/C=C(\C)[C@@H](O)[C@@H](OC)C(=O)[C@H](C)C[C@H](C)/C=C/C=C/C=C(\C)[C@@H](OCCOCCO)C[C@@H]3CC[C@@H](C)[C@@](O)(O3)C(=O)C(=O)N3CCCC[C@H]3C(=O)O2)CC[C@H]1O [Compound 524, (1R,9S,12S,15R,16E,18R,19R,21R,23S,24E,26E,28E,30S,32S,35R)-1,18-dihydroxy-30-[2-(2-hydroxyethoxy)ethoxy]-12-[(1R)-2-[(1S,3R,4R)-4-hydroxy-3-methoxy-cyclohexyl]-1-methyl-ethyl]-19-methoxy-15,17,21,23,29,35-hexamethyl-11,36-dioxa-4-azatricyclo[30.3.1.04,9]hexatriaconta-16,24,26,28-tetraene-2,3,10,14,20-pentone] | < 0.3 | < 0.8 | 500 to 1100 | –
7 | CO[C@@H]1C[C@H](C[C@@H](C)[C@@H]2CC(=O)[C@H](C)/C=C(\C)[C@@H](O)[C@@H](OC)C(=O)[C@H](C)C[C@H](C)/C=C/C=C/C=C(\C)[C@@H](OC3CC3)C[C@@H]3CC[C@@H](C)[C@@](O)(O3)C(=O)C(=O)N3CCCC[C@H]3C(=O)O2)CC[C@H]1OCCO [Compound 527, (1R,9S,12S,15R,16E,18R,19R,21R,23S,24E,26E,28E,30S,32S,35R)-30-(cyclopropoxy)-1,18-dihydroxy-12-[(1R)-2-[(1S,3R,4R)-4-(2-hydroxyethoxy)-3-methoxy-cyclohexyl]-1-methyl-ethyl]-19-methoxy-15,17,21,23,29,35-hexamethyl-11,36-dioxa-4-azatricyclo[30.3.1.04,9]hexatriaconta-16,24,26,28-tetraene-2,3,10,14,20-pentone] | 0.3 to 1 | < 0.8 | < 500 | –
8 | COCCO[C@H]1C[C@@H]2CC[C@@H](C)[C@@](O)(O2)C(=O)C(=O)N2CCCC[C@H]2C(=O)O[C@H]([C@H](C)C[C@@H]2CC[C@@H](O)[C@H](OC)C2)CC(=O)[C@H](C)/C=C(\C)[C@@H](O)[C@@H](OC)C(=O)[C@H](C)C[C@H](C)/C=C/C=C/C=C/1C [Compound 529, (1R,9S,12S,15R,16E,18R,19R,21R,23S,24E,26E,28E,30S,32S,35R)-1,18-dihydroxy-12-[(1R)-2-[(1S,3R,4R)-4-hydroxy-3-methoxy-cyclohexyl]-1-methyl-ethyl]-19-methoxy-30-(2-methoxyethoxy)-15,17,21,23,29,35-hexamethyl-11,36-dioxa-4-azatricyclo[30.3.1.04,9]hexatriaconta-16,24,26,28-tetraene-2,3,10,14,20-pentone] | < 0.3 | < 0.8 | < 500 | –
9 | CO[C@H]1C[C@@H]2CC[C@@H](C)[C@@](O)(O2)C(=O)C(=O)N2CCCC[C@H]2C(=O)O[C@H]([C@H](C)C[C@@H]2CC[C@@H](OCCO)[C@H](OC)C2)CC(=O)[C@H](C)/C=C(\C)[C@@H](O)[C@@H](OC)C(=O)[C@H](C)C[C@H](C)/C=C/C=C/C=C/1C [everolimus] | – | – | – | < 10
